According to patent publication US20240132519A1, “NRF2-ACTIVATING COMPOUND” (SENJU PHARMACEUTICAL CO., LTD., priority 2020, published 2024):
Marks after values point to notes of the source that are not given here.

Experiments:
HCE-T cells = assay: Cell viability test in HCE-T cells (Cell Counting Kit-8, 24 hours); format: cell-based, human; conditions: mean, N=3
Experimental: To confirm cell viability, HCE-T cells were seeded at 10000 cells per well in a 96-well polystyrene microplate (IWAKI). The cells were cultured in a CO2 incubator at 37° C. for 16 hours to allow the cells to adhere. The culture of the HCE-T cells was performed using DMEM/F12 medium containing 10 ng/mL hEGF, 5 μg/mL insulin, 5% FBS, and 40 μg/mL gentamicin.
Each test substance was dissolved in dimethyl sulfoxide to prepare a stock solution with a concentration that is 1000 times the test concentration. DMEM/F12 medium containing 40 μg/mL gentamicin was used as assay medium. The medium containing serum and growth factors was removed and replaced with assay medium in which each test substance was appropriately serially diluted, and the cell viability was measured after 24 hours. Cell Counting Kit-8 (Dojindo Laboratories) was added to each well in an amount that is 1/10 the amount of the medium. Color reaction was performed for 1 hour in a CO2 incubator, and absorbance at 450 nm was measured with a microplate reader (Corona Electric Co., Ltd.). […] The test was performed at N=3.

NRF2 = assay: Reporter assay: NRF2 activating action in HCE-T/ARE-Luc cells (ARE luciferase reporter gene assay); format: cell-based, human; conditions: Test Example 3; separated diastereomers; mean, N=3
Experimental: The NRF2 activating action of the compounds on cells was measured by a reporter gene assay. pGL4.37[luc2P/ARE/Hygro] (Promega) was introduced into HCE-T cells using FuGENE HD. Cells that acquired drug resistance as a result of transduction were screened by culture in the presence of 50 μg/mL hygromycin, and a clone strain, HCE-T/ARE-Luc cells, was established.
HCE-T/ARE-Luc cells were cultured using DMEM/F12 medium containing 10 ng/mL hEGF, 5 μg/mL insulin, 5% FBS, and 40 μg/mL gentamicin. As the assay medium, a medium with the same composition as that for the culture was prepared using phenol red-free DMEM/F12 medium.
HCE-T/ARE-Luc cells were seeded in a 96-well polystyrene microplate (FALCON) with 10000 cells per well. The cells were incubated in a CO2 incubator at 37° C. for 16 hours to allow for cell adhesion. The test substance was dissolved in dimethylsulfoxide to prepare a solution at a concentration 1000 times higher than the test concentration. The cells were treated with the test substance diluted 1000-fold with the assay medium and cultured for 24 hours. When measuring the activity of the reporter, the medium containing the test substance was removed, and then a new medium and a substrate of ONE-GloEX Luciferase Assay System (Promega) were added. The plate was shaken for 1 minute and then allowed to stand at ordinary temperature for 10 minutes, and luminescence was detected using the GloMax Discover System (Promega).
The test was performed at N=3, and the 50% activation concentration of each test substance was calculated by creating a calibration curve between two concentrations across the luminescence incensity of 50%.
(§1) Compounds A1/A2, compounds B1/B2, compounds C1/C2, and compounds D1/D2 were used as test substances. Binding assay and reporter assay were performed as in Test Example 1-1 and Test Example 1-2.

[1] = biological target: binding between NRF2 and KEAP1 (Homo sapiens (Human), UniProt Q14145); assay: Binding assay: inhibition of binding between NRF2 and KEAP1 by BRET (NanoLuc-NRF2 and KEAP1-HaloTag cell lysates); conditions: Test Example 3; separated diastereomers; mean, N=2
Chain of binding between NRF2 and KEAP1 (Q14145 whole entry, the tested form may be a part): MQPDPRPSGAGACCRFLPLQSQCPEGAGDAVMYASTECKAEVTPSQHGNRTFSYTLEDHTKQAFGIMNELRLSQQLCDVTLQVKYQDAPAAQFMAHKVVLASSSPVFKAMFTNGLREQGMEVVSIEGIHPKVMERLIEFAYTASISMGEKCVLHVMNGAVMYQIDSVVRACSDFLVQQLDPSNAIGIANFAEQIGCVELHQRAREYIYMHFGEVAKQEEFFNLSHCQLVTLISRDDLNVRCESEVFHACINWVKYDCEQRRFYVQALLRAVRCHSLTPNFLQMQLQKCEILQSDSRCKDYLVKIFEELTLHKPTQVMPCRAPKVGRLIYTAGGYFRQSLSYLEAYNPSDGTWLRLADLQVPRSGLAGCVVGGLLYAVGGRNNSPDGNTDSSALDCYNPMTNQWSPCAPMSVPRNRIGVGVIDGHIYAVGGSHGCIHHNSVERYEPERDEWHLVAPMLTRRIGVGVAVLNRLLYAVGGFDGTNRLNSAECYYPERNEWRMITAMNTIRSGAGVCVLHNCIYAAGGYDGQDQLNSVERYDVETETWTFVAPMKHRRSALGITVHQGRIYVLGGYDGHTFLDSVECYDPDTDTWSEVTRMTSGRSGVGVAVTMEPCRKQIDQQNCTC
Experimental: The inhibitory activity of each compound on the binding between NRF2 and KEAP1 was measured by bioluminescence resonance energy transfer (BRET) assay. A plasmid having human NRF2 (Original Clone ID: ha01449s1) sequence fused with NanoLuc (19 kDa, Promega) at the N-terminal was transduced into HCE-T cells (immortalized human corneal epithelial cells) using FuGENE HD (Promega). 48 hours after transduction, the cell lysate was collected and used as an NRF2-expressing cell lysate. A plasmid having human KEAP1 (Original Clone ID: cs00328) sequence fused with HaloTag (33 kDa, Promega) at the C-terminal was transduced into HCE-T cells using FuGENE HD (Promega). After 24 hours, HaloTag Nano BRET 618 Ligand (Promega) was added to the medium. The cell lysate cultured for 24 hours after the addition was used as a KEAP1-expressing cell lysate.
The NRF2-expressing cell lysate and the KEAP1-expressing cell lysate were adjusted so that the luminescence and fluorescence intensities per well were constant. Tables 1 and 2 show the formulation of each reaction solution.
Each test substance at a concentration 100 times higher than the test concentration was dissolved in dimethylsulfoxide for adjustment. 49 μL of KEAP1 solution was added to a 96-well polystyrene microplate (FALCON) to which 1 μL of each test substance solution was added, followed by incubation for 15 minutes. Then, 50 μL of NRF2 solution was added to the above solution, followed by incubation for 1 hour. To measure the binding between NRF2 and KEAP1, NanoBRET Nano-Glo Substrate (Promega) diluted with Opti-Mem (Thermo Fisher Scientific) was added, followed by shaking for 30 seconds. Then, luminescence and fluorescence were measured using the GloMax Discover System (Promega). A 495-nm short pass filter and a 600-nm long pass filter were respectively used to measure donor and acceptor emission values. A value obtained by dividing the acceptor emission value by the donor emission value was regarded as BRET value. A BRET value when the compound was not added, and a BRET value when the KEAP1 solution was not added were respectively used as binding rates of 100% and 0%, and the binding rate when the compound was added was calculated. Further, using this binding rate, the 50% binding inhibitory activity concentration (IC50) was calculated from the following formula. The test was performed at N=2.
IC50(M)=10^(LOG(A/B)×(50−C)/(D−C)+LOG(B)) • A: higher concentration out of 2 close concentrations across the inhibition rate of 50% • B: lower concentration out of 2 close concentrations across the inhibition rate of 50% • C: inhibition rate at B • D: inhibition rate at A
as §1

Structure (SMILES): CC[C@@H]1CN(Cc2cc(C(c3ccc(C(C)=O)s3)C(C)(C)C(=O)O)ccc2C)S(=O)(=O)c2cnccc2O1 (single isomer, unassigned) [Compound D1]
- Cytotoxic concentration (concentration that does not affect cell viability) (HCE-T cells): 34.1 µM
- EC50 (NRF2): 0.67 nM
- IC50 [1]: 0.17 nM

Structure (SMILES): CC[C@@H]1CN(Cc2cc([C@@H](c3cc(OC)c(C(C)=O)s3)[C@@H](C)C(=O)O)ccc2C)S(=O)(=O)c2cnccc2O1 [Compound C1, (2R,3S)-3-(5-acetyl-4-methoxythiophen-2-yl)-3-(3-{[(R)-4-ethyl-1,1-dioxide-3,4-dihydro-2H-pyrido[4,3-b][1,4,5]oxathiazepin-2-yl]methyl}-4-methylphenyl)-2-methylpropanoic acid]
- Cytotoxic concentration (concentration that does not affect cell viability) (HCE-T cells): 53.5 µM
- EC50 (NRF2): 3.12 nM
- IC50 [1]: 0.15 nM

Structure (SMILES): CC[C@@H]1CN(Cc2cc(C(c3ccc(C(C)=O)s3)[C@H](C)C(=O)O)ccc2C)S(=O)(=O)c2cnccc2O1 (stereo partly drawn) [Compound B2]
- Cytotoxic concentration (concentration that does not affect cell viability) (HCE-T cells): 181.1* uM
- EC50 (NRF2): 90.1 nM
- IC50 [1]: 1.01 nM

Structure (SMILES): CC[C@@H]1CN(Cc2cc(C(c3ccc(C(C)=O)s3)[C@H](C)C(=O)O)ccc2C)S(=O)(=O)c2ccccc2O1 (stereo partly drawn) [Compound A2]
- Cytotoxic concentration (concentration that does not affect cell viability) (HCE-T cells): 65.3** uM
- EC50 (NRF2): 317 nM
- IC50 [1]: 0.71 nM

Structure (SMILES): CC[C@@H]1CN(Cc2cc(C(c3ccc(C(C)=O)s3)C(C)(C)C(=O)O)ccc2C)S(=O)(=O)c2cnccc2O1 (single isomer, unassigned) [Compound D2]
- Cytotoxic concentration (concentration that does not affect cell viability) (HCE-T cells): 14.7* uM
- EC50 (NRF2): 513 nM
- IC50 [1]: 5.17 nM

Structure (SMILES): CC[C@@H]1CN(Cc2cc([C@@H](c3ccc(C(C)=O)s3)[C@@H](C)C(=O)O)ccc2C)S(=O)(=O)c2ccccc2O1 [Compound A1, (2R,3S)-3-(5-acetylthiophen-2-yl)-3-(3-{[(R)-4-ethyl-1,1-dioxide-3,4-dihydro-2H-benzo[b][1,4,5]oxathiazepin-2-yl]methyl}-4-methylphenyl)-2-methylpropanoic acid]
- Cytotoxic concentration (concentration that does not affect cell viability) (HCE-T cells): 111.4 µM
- EC50 (NRF2): 5.82 nM
- IC50 [1]: 0.14 nM

Structure (SMILES): CC[C@@H]1CN(Cc2cc([C@@H](c3ccc(C(C)=O)s3)[C@@H](C)C(=O)O)ccc2C)S(=O)(=O)c2cnccc2O1 [Compound B1, (2R,3S)-3-(5-acetylthiophen-2-yl)-3-(3-{[(R)-4-ethyl-1,1-dioxide-3,4-dihydro-2H-pyrido[4,3-b][1,4,5]oxathiazepin-2-yl]methyl}-4-methylphenyl)-2-methylpropanoic acid]
- Cytotoxic concentration (concentration that does not affect cell viability) (HCE-T cells): 345.4 µM
- EC50 (NRF2): 0.98 nM
- IC50 [1]: 0.17 nM

Structure (SMILES): CC[C@@H]1CN(Cc2cc(C(c3cc(OC)c(C(C)=O)s3)[C@H](C)C(=O)O)ccc2C)S(=O)(=O)c2cnccc2O1 (stereo partly drawn) [Compound C2]
- Cytotoxic concentration (concentration that does not affect cell viability) (HCE-T cells): 30.7* uM
- EC50 (NRF2): 777 nM
- IC50 [1]: 0.89 nM
